Drawing on patent US12091411B2, “IRAK degraders and uses thereof” (Kymera Therapeutics, Inc., priority 2022, dated 2024), this text covers DC50 for 32 compounds.

The assay addresses T1, IRAK4 (Homo sapiens, UniProt Q9NWZ3).
T1 construct: Degradation of IRAK4 in OCI-LY10 was quantitatively measured using Meso Scale Discovery technology; endogenous in cells; host or cells: OCI-LY10
T1 sequence (Q9NWZ3 1-460): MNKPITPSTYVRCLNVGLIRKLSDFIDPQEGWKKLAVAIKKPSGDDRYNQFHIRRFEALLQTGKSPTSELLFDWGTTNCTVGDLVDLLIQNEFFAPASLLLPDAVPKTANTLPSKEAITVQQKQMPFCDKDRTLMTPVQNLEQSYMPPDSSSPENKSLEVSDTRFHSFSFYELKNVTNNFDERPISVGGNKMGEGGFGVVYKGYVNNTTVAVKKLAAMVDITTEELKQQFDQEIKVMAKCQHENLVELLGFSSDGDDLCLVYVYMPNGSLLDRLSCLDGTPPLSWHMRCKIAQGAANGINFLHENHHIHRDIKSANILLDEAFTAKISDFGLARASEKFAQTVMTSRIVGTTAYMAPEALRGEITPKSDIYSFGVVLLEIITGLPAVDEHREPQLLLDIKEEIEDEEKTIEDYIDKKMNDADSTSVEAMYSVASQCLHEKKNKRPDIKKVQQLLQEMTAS
Briefly: IRAK4 MSD Degradation in OCI-LY10. As to conditions: OCI-LY10 cells, MSD. It counts as cell-based. The method in brief:
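OCI-LY10 cells exposed to 8-point 1:3 compound series (top 1 to 10 μM) for 4 to 24 h at 37 °C, 5% CO2. Lysate IRAK4 quantified by MSD sandwich immunoassay. DC50 from three-parameter logistic fit, binned A (<0.01 μM) to D (>0.2 μM or not tested).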

[1] abbreviates: 4 hrs incubation, read-out: IRAK4 degradation in OCI-LY10 at 4 hrs: DC50.
Setting [2] is: 24 hrs incubation, read-out: IRAK4 degradation in OCI-LY10 at 24 hrs: DC50.

Each structure is given as a SMILES string. Like-named read-outs stand apart in the source and are kept apart here.

A word on the DC50: it is the midpoint of the concentration-degradation curve. Consider `Cn1c(=O)n(C2CCC(=O)NC2=O)c2cccc(N3CC(CO[C@@H]4CCN(C[C@H]5CC[C@H](n6cc(NC(=O)c7cnn8ccc(N9C[C@H]%10CC9CO%10)nc78)c(C(F)F)n6)CC5)C[C@@H]4F)C3)c21` (stereo partly shown) [I-585], for which the DC50 runs as follows: under setting [1], over 200 nM; under setting [2], under 10 nM.
As to `Cn1c(=O)n(C2CCC(=O)NC2=O)c2cccc(N3CC(CO[C@@H]4CCN(C[C@H]5CC[C@H](n6cc(NC(=O)c7cnn8ccc(N9C[C@H]%10CC9CO%10)nc78)c(C(F)F)n6)CC5)C[C@H]4F)C3)c21` (stereo partly shown) [I-586], the DC50 is over 200 nM under setting [1] and under 10 nM under setting [2].
For the compound `Cn1c(=O)n(C2CCC(=O)NC2=O)c2cccc(N3CC(CO[C@H]4CCN(C[C@H]5CC[C@H](n6cc(NC(=O)c7cnn8ccc(N9C[C@H]%10CC9CO%10)nc78)c(C(F)F)n6)CC5)C[C@@H]4F)C3)c21` (stereo partly shown) [I-587], the DC50 by setting is: under setting [1], over 200 nM; under setting [2], under 10 nM.
`Cn1c(=O)n(C2CCC(=O)NC2=O)c2cccc(N3CC(CO[C@H]4CCN(C[C@H]5CC[C@H](n6cc(NC(=O)c7cnn8ccc(N9C[C@H]%10CC9CO%10)nc78)c(C(F)F)n6)CC5)C[C@H]4F)C3)c21` (stereo partly shown) [I-588]: the 50% degradation concentration (DC50) under setting [1] was over 200 nM and the 50% degradation concentration (DC50) under setting [2] was under 10 nM.
For `Cn1c(=O)n(C2CCC(=O)NC2=O)c2cccc(C#CCO[C@@H]3CCN(C[C@H]4CC[C@H](n5cc(NC(=O)c6cnn7ccc(N8CCS(=O)(=O)CC8)nc67)c(C(F)F)n5)CC4)C[C@@H]3F)c21` (stereo partly shown) [I-589], the DC50 is over 200 nM under setting [1] and over 200 nM under setting [2].
Turning to `Cn1c(=O)n(C2CCC(=O)NC2=O)c2cccc(C#CCO[C@@H]3CCN(C[C@H]4CC[C@H](n5cc(NC(=O)c6cnn7ccc(N8CCS(=O)(=O)CC8)nc67)c(C(F)F)n5)CC4)C[C@H]3F)c21` (stereo partly shown) [I-590], the DC50 under setting [1] is over 200 nM and the DC50 under setting [2] is over 200 nM.
On to `Cn1c(=O)n(C2CCC(=O)NC2=O)c2cccc(C#CCO[C@H]3CCN(C[C@H]4CC[C@H](n5cc(NC(=O)c6cnn7ccc(N8CCS(=O)(=O)CC8)nc67)c(C(F)F)n5)CC4)C[C@@H]3F)c21` (stereo partly shown) [I-591], for which the DC50 under setting [1] is over 200 nM and the DC50 under setting [2] is over 200 nM.
For `Cn1c(=O)n(C2CCC(=O)NC2=O)c2cccc(C#CCO[C@H]3CCN(C[C@H]4CC[C@H](n5cc(NC(=O)c6cnn7ccc(N8CCS(=O)(=O)CC8)nc67)c(C(F)F)n5)CC4)C[C@H]3F)c21` (stereo partly shown) [I-592], the DC50 is over 200 nM under setting [1] and over 200 nM under setting [2].
Take `Cn1c(=O)n(C2CCC(=O)NC2=O)c2cccc([C@H]3C[C@H](O[C@@H]4CCN(C[C@H]5CC[C@H](n6cc(NC(=O)c7cnn8ccc(N9C[C@H]%10C[C@@H]9CO%10)nc78)c(C(F)F)n6)CC5)C[C@@H]4F)C3)c21` (stereo partly shown) [I-593]: the DC50 by setting is: under setting [1], over 200 nM; under setting [2], over 200 nM.
As to `Cn1c(=O)n(C2CCC(=O)NC2=O)c2cccc([C@H]3C[C@H](O[C@@H]4CCN(C[C@H]5CC[C@H](n6cc(NC(=O)c7cnn8ccc(N9C[C@H]%10C[C@@H]9CO%10)nc78)c(C(F)F)n6)CC5)C[C@H]4F)C3)c21` (stereo partly shown) [I-594], the DC50 was over 200 nM under setting [1] and over 200 nM under setting [2].
In the case of `Cn1c(=O)n(C2CCC(=O)NC2=O)c2cccc([C@H]3C[C@H](O[C@H]4CCN(C[C@H]5CC[C@H](n6cc(NC(=O)c7cnn8ccc(N9C[C@H]%10C[C@@H]9CO%10)nc78)c(C(F)F)n6)CC5)C[C@@H]4F)C3)c21` (stereo partly shown) [I-595], the DC50 reads like this: under setting [1], over 200 nM; under setting [2], over 200 nM.
Consider `Cn1c(=O)n(C2CCC(=O)NC2=O)c2cccc([C@H]3C[C@H](O[C@H]4CCN(C[C@H]5CC[C@H](n6cc(NC(=O)c7cnn8ccc(N9C[C@H]%10C[C@@H]9CO%10)nc78)c(C(F)F)n6)CC5)C[C@H]4F)C3)c21` (stereo partly shown) [I-596], for which the DC50 reads like this: under setting [1], over 200 nM; under setting [2], over 200 nM.
`Cn1c(=O)n(C2CCC(=O)NC2=O)c2cccc([C@H]3C[C@@H](COC4CN(C[C@H]5CC[C@H](n6cc(NC(=O)c7cnn8ccc(N9C[C@H]%10C[C@@H]9CO%10)nc78)c(C(F)F)n6)CC5)C4)C3)c21` (stereo partly shown) [I-597]: the DC50 runs as follows: under setting [1], over 200 nM; under setting [2], under 10 nM.
On the same counts, the results for `Cn1c(=O)n(C2CCC(=O)NC2=O)c2cccc([C@H]3C[C@H](COC4CN(C[C@H]5CC[C@H](n6cc(NC(=O)c7cnn8ccc(N9C[C@H]%10C[C@@H]9CO%10)nc78)c(C(F)F)n6)CC5)C4)C3)c21` (stereo partly shown) [I-598] are over 200 nM and under 10 nM.
As for `Cn1c(=O)n(C2CCC(=O)NC2=O)c2cccc(N3CC(COC4CN(C[C@H]5CC[C@H](n6cc(NC(=O)c7cnn8ccc(N9C[C@H]%10C[C@@H]9CO%10)nc78)c(C(F)F)n6)CC5)C4)C3)c21` (stereo partly shown) [I-599], the DC50 was over 200 nM under setting [1] and under 10 nM under setting [2].
On the same counts, the results for `Cn1c(=O)n(C2CCC(=O)NC2=O)c2cccc(C#CCOC3CN(C[C@H]4CC[C@H](n5cc(NC(=O)c6cnn7ccc(N8C[C@H]9C[C@@H]8CO9)nc67)c(C(F)F)n5)CC4)C3)c21` (stereo partly shown) [I-600] are over 200 nM and over 200 nM.
Turning to `Cn1c(=O)n(C2CCC(=O)NC2=O)c2cccc(N3CC(OC4CCN(C[C@H]5CC[C@H](n6cc(NC(=O)c7cnn8ccc(N9C[C@H]%10C[C@@H]9CO%10)nc78)c(C(F)F)n6)CC5)CC4)C3)c21` (stereo partly shown) [I-601], the DC50 was over 200 nM under setting [1] and over 200 nM under setting [2].
As to `CN(C[C@H]1CC[C@H](n2cc(NC(=O)c3cnn4ccc(N5C[C@H]6C[C@@H]5CO6)nc34)c(C(F)F)n2)CC1)C1CN(c2cccc3c2n(C)c(=O)n3C2CCC(=O)NC2=O)C1` (stereo partly shown) [I-602], the half-maximal degradation concentration (DC50) under setting [1] is over 200 nM and the DC50 under setting [2] was over 200 nM.
Take `C[C@H]1CN(c2ccn3ncc(C(=O)Nc4cn([C@H]5CC[C@H](CN(C)C6CN(c7cccc8c7n(C)c(=O)n8C7CCC(=O)NC7=O)C6)CC5)nc4C(F)F)c3n2)CCO1` (stereo partly shown) [I-603]: the DC50 by setting is: under setting [1], over 200 nM; under setting [2], over 200 nM.
Regarding `Cn1c(=O)n(C2CCC(=O)NC2=O)c2cccc(N3CC(F)(CN4CCN(C[C@H]5CC[C@H](n6cc(NC(=O)c7cnn8ccc(N9C[C@H]%10CC9CO%10)nc78)c(C(F)F)n6)CC5)CC4)C3)c21` (stereo partly shown) [I-604], the DC50 runs as follows: under setting [1], over 200 nM; under setting [2], over 200 nM.
With `Cn1c(=O)n(C2CCC(=O)NC2=O)c2cccc(N3CC(O)(CN4CCN(C[C@H]5CC[C@H](n6cc(NC(=O)c7cnn8ccc(N9C[C@H]%10CC9CO%10)nc78)c(C(F)F)n6)CC5)CC4)C3)c21` (stereo partly shown) [I-605], the DC50 runs as follows: under setting [1], over 200 nM; under setting [2], under 10 nM.
In the case of `COC1(CN2CCN(C[C@H]3CC[C@H](n4cc(NC(=O)c5cnn6ccc(N7C[C@H]8CC7CO8)nc56)c(C(F)F)n4)CC3)CC2)CN(c2cccc3c2n(C)c(=O)n3C2CCC(=O)NC2=O)C1` (stereo partly shown) [I-606], the 50% degradation concentration (DC50) is over 200 nM under setting [1] and under 10 nM under setting [2].
`Cn1c(=O)n(C2CCC(=O)NC2=O)c2cccc(OC3CN(C[C@H]4CC[C@H](n5cc6cc(NC(=O)c7cccc(C(F)(F)F)n7)ccc6n5)CC4)C3)c21` (stereo partly shown) [I-607]: the 50% degradation concentration (DC50) was over 200 nM under setting [1] and 10 to 100 nM under setting [2].
For the compound `Cn1c(=O)n(C2CCC(=O)NC2=O)c2cccc(OC3CN(C[C@H]4CC[C@H](n5cc6cc(NC(=O)c7cccc(C(F)(F)F)n7)ncc6n5)CC4)C3)c21` (stereo partly shown) [I-608], the DC50 under setting [1] is over 200 nM and the DC50 under setting [2] is over 200 nM.
`Cn1c(=O)n(C2CCC(=O)NC2=O)c2cccc(C3CN(C[C@H]4CC[C@H](n5cc6cc(NC(=O)c7cccc(C(F)(F)F)n7)ccc6n5)CC4)C3)c21` (stereo partly shown) [I-609]: the DC50 runs as follows: under setting [1], over 200 nM; under setting [2], over 200 nM.
As to `Cn1c(=O)n(C2CCC(=O)NC2=O)c2cccc(C3CN(C[C@H]4CC[C@H](n5cc6cc(NC(=O)c7cccc(C(F)(F)F)n7)ncc6n5)CC4)C3)c21` (stereo partly shown) [I-610], the DC50 under setting [1] was over 200 nM and the DC50 under setting [2] is over 200 nM.
With `Cc1cccc(C(=O)Nc2ccc3nn([C@H]4CC[C@H](CN5CCC(c6cccc7c6n(C)c(=O)n7C6CCC(=O)NC6=O)C(F)(F)C5)CC4)cc3c2)n1` (stereo partly shown) [I-611], the DC50 under setting [1] was over 200 nM and the DC50 under setting [2] is over 200 nM.
With `Cn1c(=O)n(C2CCC(=O)NC2=O)c2cccc(C3CCN(C[C@H]4CC[C@H](n5cc6cc(NC(=O)c7cccc(C#N)n7)ccc6n5)CC4)CC3(F)F)c21` (stereo partly shown) [I-612], the DC50 was over 200 nM under setting [1] and over 200 nM under setting [2].
On to `Cn1c(=O)n(C2CCC(=O)NC2=O)c2cccc(C3CCN(C[C@H]4CC[C@H](n5cc6cc(NC(=O)c7cccc(C(F)F)n7)ccc6n5)CC4)CC3(F)F)c21` (stereo partly shown) [I-613], for which the half-maximal degradation concentration (DC50) is, setting by setting: under setting [1], over 200 nM; under setting [2], under 10 nM.
The corresponding values for `Cc1cccc(C(=O)Nc2cc3cn([C@H]4CC[C@H](CN5CCC(c6cccc7c6n(C)c(=O)n7C6CCC(=O)NC6=O)C(F)(F)C5)CC4)nc3cn2)n1` (stereo partly shown) [I-614] are over 200 nM and under 10 nM.
The corresponding values for `Cn1c(=O)n(C2CCC(=O)NC2=O)c2cccc(C3CCN(C[C@H]4CC[C@H](n5cc6cc(NC(=O)c7cccc(C#N)n7)ncc6n5)CC4)CC3(F)F)c21` (stereo partly shown) [I-615] are over 200 nM and under 10 nM.
As for `Cn1c(=O)n(C2CCC(=O)NC2=O)c2cccc(C3CCN(C[C@H]4CC[C@H](n5cc6cc(NC(=O)c7cccc(C(F)F)n7)ncc6n5)CC4)CC3(F)F)c21` (stereo partly shown) [I-616], the DC50 reads like this: under setting [1], over 200 nM; under setting [2], under 10 nM.
